The numbers were not newly measured in patent US7157444B2, “Aminosalicylate derivatives for treatment of inflammatory bowel disease” (priority 2002, dated 2007), which cites them from elsewhere.

For the data set the following is noted: oral, 40 mL of a suspension of 1 g of ASA in water, fasted healthy subjects.

Molecules are shown by their SMILES.

As to `Nc1ccc(O)c(C(=O)O)c1` [ASA, 5-aminosalicylic acid], the maximum plasma concentration is 14.7 µg/mL and the “time of maximum plasma concentration post-dose” value is “Within an hour post-dose”.
For the molecule `CC(=O)Nc1ccc(O)c(C(=O)O)c1` [N-acetyl-ASA], the maximum plasma concentration is 11.4 µg/mL and the “time of maximum plasma concentration post-dose” value is listed as “Within an hour post-dose”.
